Publication PMC10840383, “Clinical features, functional consequences, and rescue pharmacology of missense GRID1 and GRID2 human variants” (Human Molecular Genetics, 2023)
Where a chain is given by its changes, count along the chain named. Where “and” joins values, the source holds several entries; their conditions need not be identical. Identical values can stand only once. Like-named read-outs stand apart in the source and are kept apart here. Values belong to the molecule of their own block, whether it stands above or below them.

Experiments:
GluD2-T649A = molecular target: T1, GluD2-T649A (Rattus norvegicus, UniProt Q63226, T649A); assay: TEVC of constitutive current, Xenopus oocytes expressing GluD2-T649A; assay type: cell-based; details: for IC50: read-out: Pentamidine IC50
T1 construct: expressed in transfected cells; host or cells: Xenopus laevis oocytes injected with cRNA
T1 sequence (Q63226 24-1007 T649A): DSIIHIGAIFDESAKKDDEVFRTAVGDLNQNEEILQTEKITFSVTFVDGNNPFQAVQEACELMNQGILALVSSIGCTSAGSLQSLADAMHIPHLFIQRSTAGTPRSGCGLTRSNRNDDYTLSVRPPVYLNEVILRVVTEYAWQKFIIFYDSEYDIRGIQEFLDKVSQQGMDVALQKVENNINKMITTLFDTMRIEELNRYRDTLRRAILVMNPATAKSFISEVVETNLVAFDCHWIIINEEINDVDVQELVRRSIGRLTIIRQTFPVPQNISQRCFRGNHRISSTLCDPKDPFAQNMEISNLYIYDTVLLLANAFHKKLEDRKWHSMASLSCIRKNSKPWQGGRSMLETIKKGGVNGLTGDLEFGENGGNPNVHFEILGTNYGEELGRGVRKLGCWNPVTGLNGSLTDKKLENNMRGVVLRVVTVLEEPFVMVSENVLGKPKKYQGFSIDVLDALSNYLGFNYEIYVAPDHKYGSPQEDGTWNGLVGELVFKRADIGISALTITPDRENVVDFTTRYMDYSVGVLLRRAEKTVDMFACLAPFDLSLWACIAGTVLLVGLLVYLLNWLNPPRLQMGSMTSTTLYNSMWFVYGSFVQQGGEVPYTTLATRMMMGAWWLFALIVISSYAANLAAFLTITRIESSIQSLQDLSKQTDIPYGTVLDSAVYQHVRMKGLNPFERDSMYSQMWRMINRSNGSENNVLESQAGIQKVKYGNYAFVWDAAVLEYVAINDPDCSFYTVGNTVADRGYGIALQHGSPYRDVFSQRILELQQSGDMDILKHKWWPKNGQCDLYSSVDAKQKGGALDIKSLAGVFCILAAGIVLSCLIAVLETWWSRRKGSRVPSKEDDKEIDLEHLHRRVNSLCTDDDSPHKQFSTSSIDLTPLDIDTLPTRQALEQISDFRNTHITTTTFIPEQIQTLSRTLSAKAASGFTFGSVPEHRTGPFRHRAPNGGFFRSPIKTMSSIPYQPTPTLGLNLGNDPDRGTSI

GluD2-L656V = molecular target: T2, GluD2-L656V (Rattus norvegicus, UniProt Q63226, L656V); assay: TEVC of constitutive current, Xenopus oocytes expressing GluD2-L656V; assay type: cell-based
T2 construct: expressed in transfected cells; host or cells: Xenopus laevis oocytes injected with cRNA
T2 sequence (Q63226 24-1007 L656V): T1 sequence (Q63226 24-1007 T649A) with A626T, L633V

[1] = normalized to NMDG+ − Na+ difference current
[2] = potentiation of constitutive current, read-out: Ca2+ EC50 [95% CI]
[3] = read-out: Ca2+ potentiation EC50
[4] = 10 mM D-serine, positive = increase, negative = decrease of activity
[5] = percent of constitutive leak current (NMDG+/Na+ difference current)
[6] = 100 μM pentamidine, positive = increase, negative = decrease of activity

Ca2+ EC50 of the relation Ca2+ concentration vs D-serine IC50 (GluD2-T649A; Hill fit, Fig. S7A): 630 µM
Hill slope of the relation Ca2+ concentration vs D-serine IC50 (GluD2-T649A; Hill fit, Fig. S7A): 1.4
Ca2+ % Max (NMDG+ − Na+) Mean ± SEM (GluD2-T649A; [1]): 345 ± 55 (10) %
EC50 (GluD2-T649A; [2]): 290 µM
Ca2+ EC50 A654T/EC50 variant (GluD2-T649A; ratio): 0.52
EC50 (GluD2-T649A; [3]): 100 to 400 µM
Ca2+ % Max (NMDG+ − Na+) Mean ± SEM (GluD2-L656V; [1]): 260 ± 9.9 (11) %
EC50 (GluD2-L656V; [2]): 170 µM
Ca2+ EC50 A654T/EC50 variant (GluD2-L656V; ratio): 0.88
EC50 (GluD2-L656V; [3]): 100 to 400 µM
SMILES: [Ca+2] [Ca^2+]

D-serine Hill slope (GluD2-T649A; 1 mM Ca2+, Fig. S7B): 2.0
D-serine Maximum (GluD2-T649A; 1 mM Ca2+, Fig. S7B): 54%
D-Serine effect (Baseline −10 mM D-Serine) (GluD2-T649A; [4]): −35 ± 5.6 (14) nA
D-serine % Max (NMDG+ − Na+) Mean ± SEM (GluD2-T649A; [5]): 49 ± 2.5 (7) %
Reduction of maximum possible activity (Na+ −NMDG+ difference current) by D-serine (GluD2-L656V; 10 mM D-serine): ~ 50%
D-Serine effect (Baseline −10 mM D-Serine) (GluD2-L656V; [4]): −460 ± 53 (12) nA
D-serine % Max (NMDG+ − Na+) Mean ± SEM (GluD2-L656V; [5]): 62 ± 3.2 (14) %
SMILES: N[C@H](CO)C(=O)O [D-serine]

SMILES: N=C(N)c1ccc(OCCCCCOc2ccc(C(=N)N)cc2)cc1 [Pentamidine, pentamidine]
Pentamidine effect (Baseline −100 μM Pentamidine) (GluD2-T649A; [6]): −18 ± 4.8 (14) nA
Fold increase in pentamidine potency on GluD2-T649A compared to GluD2-A654T (GluD2-T649A; IC50 comparison): ~ 200 fold and > 200 fold
IC50 (GluD2-T649A; inhibition of constitutive channels): 0.037 µM
IC50 (GluD2-T649A; inhibition of constitutive current, 1 mM Ca2+): 0.036 µM
Pentamidine effect (Baseline −100 μM Pentamidine) (GluD2-L656V; [6]): −640 ± 190 (12) nA
IC50 (GluD2-L656V; read-out: Pentamidine IC50): 10 µM
